Data on 1 compound can be found in ChEMBL document CHEMBL1133169, “A light-inactivated antibiotic” (2000).

The target in experiment [1] is Beta-lactamase TEM (Escherichia coli) (UniProt P62593). In words: The turnover kinetic parameter (kcat/Km) evaluated for class A TEM-1 Beta-latctamase.
The target is the same in experiment [2]. The experiment is described as follows: The turnover kinetic parameter (kcat) evaluated for Class A TEM-1 beta-lactamase.
Experiment [3] can be described thus: The turnover kinetic parameter (kcat) evaluated for class C Q908R Beta-latctamase.
The nature of experiment [4]: The turnover kinetic parameter (kcat/Km) evaluated for class C Q908R Beta-latctamase.
A short description of experiment [5]: The turnover kinetic parameter (Km) evaluated for Class C Q908R Beta-lactamase.

Beta-lactamase TEM (Escherichia coli), sequence (P62593 whole entry): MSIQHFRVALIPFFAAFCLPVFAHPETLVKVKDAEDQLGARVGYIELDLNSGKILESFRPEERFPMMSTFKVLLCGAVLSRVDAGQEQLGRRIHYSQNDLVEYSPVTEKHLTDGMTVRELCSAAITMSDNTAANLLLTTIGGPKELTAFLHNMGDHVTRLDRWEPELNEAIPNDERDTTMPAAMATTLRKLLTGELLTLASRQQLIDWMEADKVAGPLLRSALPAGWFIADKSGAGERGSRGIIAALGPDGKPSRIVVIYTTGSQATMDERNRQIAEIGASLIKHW

As to `CC(=O)OCC1=C(C(=O)O)N2C(=O)[C@@H](NC(=O)[C@@H](Cc3ccccc3)NNC(=O)OCc3ccccc3[N+](=O)[O-])C2SC1` (stereo not given in full), the k cat/Km in experiment [1] came to 93000 M⁻¹ s⁻¹; in experiment [4], 2.8e+07 M⁻¹ s⁻¹. The results for the k cat in experiment [2] and in experiment [3] were 7.4 s⁻¹ and 1770 s⁻¹, respectively. The Michaelis constant (Km) in experiment [5] was found to be 62 µM.
